Measured values reported in patent US6979664B1, “Composition for accelerating seed germination and plant growth” (Bios Agriculture Inc., priority 1998, dated 2005).

What was measured:
Type in all cases: in vivo
[1] = system: Cucumis melo; assay: seedling emergence at 25° C.
Excerpt: (§1) Plastic pots (7.5 cm dia) were filled with 15 g of autoclaved vermiculite. Seeds of corn (Zea mays—Poaceae), bean (Phaseolus vulgaris—Fabaceae), canola (Brassica napus—Brassicaceae), cucumber (Cucumis sativus—Cucurbitaceae), cantaloupe (Cucumis melo—Cucurbitaceae), cotton (Gossypium sp.—Malvaceae), lettuce (Lactuca sativa—Asteraceae), beet (Beta vulgaris—Chenopodiaceae), and soybean (Glycine max—Fabaceae), were placed at 2.5 cm deep at the rate of 5 or 10 seeds per pot. Pots were irrigated with either 25 mL of LCO solution at different concentrations (10^−6–10^−14M) or aqueous acetonitrile or water, as controls. Acetonitrile was included as one of the controls since LCO was purified in this solvent (see Example 3), after 4 days the pots were irrigated with 10 mL of water once every two days. Each treatment had 4 replications in a randomized block design. Pots were placed on a green house bench maintained at 25±2° C. with a day/night cycle 16/8 h and relative humidity of 70%, or in a growth chamber set at 15° C. with a 16:8 day/night cycle. […] As defined above, seedling emergence has occurred when growth of the plant can be observed above the rooting medium surface. The percent emergence was calculated. The data were analyzed with Statistical Analysis System, version 6.12 (SAS institute Inc. Cary, N.C., USA).

[2] = system: Zea mays; assay: seedling emergence at 25° C.
Excerpt: as §1

[3] = system: Beta vulgaris; assay: seedling emergence at 25° C.
Excerpt: as §1

[4] = system: Letuca sativa; assay: seedling emergence at 25° C.
Excerpt: as §1

[5] = system: Glycine max; assay: seedling emergence at 25° C.
Excerpt: as §1

[6] = system: Phaseolus vulgaris; assay: seedling emergence at 25° C.
Excerpt: as §1

[7] = system: Gossypium sp.; assay: seedling emergence at 25° C.
Excerpt: as §1

[8] = system: corn (Zea mays L.); assay: germination of corn after 72 h of treatment (petri plate); conditions: 25° C.
Description: Seeds of corn (cv Pioneer 3921) were surface sterilized in 2% sodium hypochlorite solution for 2 minutes and placed in 9 cm diameter Petri plates containing a sheet of filter paper soaked in 10 ml of the required test solution (LCO 10^−5–10^−13). Water served as the control. Observations on germination, length of root primodia and shoot were taken after 72 h of incubation at 25° C. The data was analyzed for significance by an ANOVA protected LSD test using SAS system Version 6.1 (SAS Inc., Cary, N.C., USA).

[9] = system: Beet; assay: seedling emergence under field condition; conditions: six days after planting
Description: (§2) Seeds were surface sterilized with 2% sodium hypochlorite and soaked in different concentrations (10^−5, 10^−7, 10^−9M) of LCO solution for 12 h. Water served as the control. The study was conducted at the experimental field of the Macdonald campus of McGill University, Ste-Anne-de-Belleveue. Quebec, Canada. The field was ploughed to a fine tilth, seeds were hand planted in 1 m rows at 2.5 to 3 cm deep with three replications per treatment. […] The data was analyzed for significance by an ANOVA protected LSD test using SAS system Version 6.1 (SAS Inc., Cary, N.C., USA).

[10] = system: Cotton; assay: seedling emergence under field condition; conditions: for seedling emergence under field condition: Cotton, six days after planting
Description: as §2

[11] = system: Corn; assay: seedling emergence under field condition; conditions: six days after planting
Description: as §2

[12] = system: Soybean; assay: seedling emergence under field condition; conditions: six days after planting
Description: as §2

SMILES: CCCCCCC=CCCCCCCCCCC(=O)NC1C(OC2C(CO)OC(OC3C(CO)OC(OC4C(CO)OC(OC5C(COC6OC(C)C(O)C(O)C6OC)OC(O)C(NC(C)=O)C5O)C(NC(C)=O)C4O)C(NC(C)=O)C3O)C(NC(C)=O)C2O)OC(CO)C(O)C1O (centres unmarked) [LCO, NodBj-V(C18:1Δ11)]
- seedling emergence (%) ([1]; 10^−7 M): 100 b %
- seedling emergence (%) ([1]; 10^−9 M): 100 b %
- seedling emergence (%) ([1]; 10^−11 M): 100 b %
- seedling emergence (%) ([1]; 10^−13 M): 100 b %
- seedling emergence (%) ([2]; 10^−6 M): 76 ab %
- seedling emergence (%) ([2]; 10^−7 M): 68 abc %
- seedling emergence (%) ([2]; 10^−8 M): 84 a %
- seedling emergence (%) ([2]; 10^−9 M): 88 a %
- seedling emergence (%) ([2]; 10^−10 M): 84 a %
- seedling emergence (%) ([2]; 10^−11 M): 68 abc %
- seedling emergence (%) ([2]; 10^−12 M): 48 abc %
- seedling emergence (%) ([2]; 10^−13 M): 40 c %
- seedling emergence (%) ([2]; 10^−14 M): 40 c %
- seedling emergence (%) ([3]; 10^−7 M): 66.6%
- seedling emergence (%) ([3]; 10^−9 M): 66 b %
- seedling emergence (%) ([3]; 10^−11 M): 86 b %
- seedling emergence (%) ([3]; 10^−13 M): 80 b %
- seedling emergence (%) ([4]; 10^−6 M): 45 a %
- seedling emergence (%) ([4]; 10^−7 M): 35 ab %
- seedling emergence (%) ([4]; 10^−8 M): 10 dc %
- seedling emergence (%) ([4]; 10^−9 M): 20 bcd %
- seedling emergence (%) ([4]; 10^−10 M): 25 abcd %
- seedling emergence (%) ([4]; 10^−11 M): 26 abcd %
- seedling emergence (%) ([4]; 10^−12 M): 30 abc %
- seedling emergence (%) ([4]; 10^−13 M): 5 d %
- seedling emergence (%) ([4]; 10^−14 M): 10 d %
- seedling emergence (%) ([5]; 10^−6 M): 65 d %
- seedling emergence (%) ([5]; 10^−7 M): 80 bc %
- seedling emergence (%) ([5]; 10^−8 M): 90 ab %
- seedling emergence (%) ([5]; 10^−9 M): 100 a %
- seedling emergence (%) ([5]; 10^−10 M): 70 cd %
- seedling emergence (%) ([5]; 10^−11 M): 50 e %
- seedling emergence (%) ([5]; 10^−12 M): 80 bc %
- seedling emergence (%) ([5]; 10^−13 M): 70 cd %
- seedling emergence (%) ([5]; 10^−14 M): 70 cd %
- seedling emergence (%) ([6]; 10^−6 M): 67 abc %
- seedling emergence (%) ([6]; 10^−7 M): 89 a %
- seedling emergence (%) ([6]; 10^−8 M): 78 ab %
- seedling emergence (%) ([6]; 10^−9 M): 67 abc %
- seedling emergence (%) ([6]; 10^−10 M): 44 abc %
- seedling emergence (%) ([6]; 10^−11 M): 22 c %
- seedling emergence (%) ([6]; 10^−12 M): 33 bc %
- seedling emergence (%) ([6]; 10^−13 M): 33 bc %
- seedling emergence (%) ([6]; 10^−14 M): 33 bc %
- seedling emergence (%) ([7]; 10^−6 M): 88 a %
- seedling emergence (%) ([7]; 10^−7 M): 66 ab %
- seedling emergence (%) ([7]; 10^−8 M): 88 a %
- seedling emergence (%) ([7]; 10^−9 M): 88 a %
- seedling emergence (%) ([7]; 10^−10 M): 88 a %
- Length of root primodia ([8]; LCO 10^−5 M): 53.0 ab mm
- Length of shoot primodia ([8]; LCO 10^−5 M): 12.3 ab mm
- Percent germination ([8]; LCO 10^−5 M): 80 bc Percent
- Length of root primodia ([8]; LCO 10^−7 M): 57.6 bc mm
- Length of shoot primodia ([8]; LCO 10^−7 M): 15.0 ab mm
- Percent germination ([8]; LCO 10^−7 M): 73.3 b Percent
- Length of root primodia ([8]; LCO 10^−9 M): 48.0 ab mm
- Length of shoot primodia ([8]; LCO 10^−9 M): 9.6 a mm
- Percent germination ([8]; LCO 10^−9 M): 73.3 b Percent
- Length of root primodia ([8]; LCO 10^−11 M): 78.6 c mm
- Length of shoot primodia ([8]; LCO 10^−11 M): 21.0 b mm
- Percent germination ([8]; LCO 10^−11 M): 100 c Percent
- Length of root primodia ([8]; LCO 10^−13 M): 43.0 bc mm
- Length of shoot primodia ([8]; LCO 10^−13 M): 8.3 a mm
- Percent germination ([8]; LCO 10^−13 M): 80 bc Percent
- seedling emergence under field condition ([9]; 10^−7 M seed soak 12 h): 46.6 c
- seedling emergence under field condition ([9]; LCO 10^−5 M seed soak 12 h): 28.3 a
- seedling emergence under field condition ([9]; LCO 10^−9 M seed soak 12 h): 38.3 ab
- seedling emergence under field condition ([10]; 10^−7 M seed soak 12 h): 60.0 b
- seedling emergence under field condition ([10]; LCO 10^−5 M seed soak 12 h): 16.6 a
- seedling emergence under field condition ([10]; LCO 10^−9 M seed soak 12 h): 23.3 a
- improvement of emergence as compared to the control ([10]; cotton, LCO at 10^−7M, field): more than 9 times
- seedling emergence under field condition ([11]; 10^−7 M seed soak 12 h): 60.0 b
- seedling emergence under field condition ([11]; LCO 10^−5 M seed soak 12 h): 80.0 b
- seedling emergence under field condition ([11]; LCO 10^−9 M seed soak 12 h): 53.3 b
- seedling emergence under field condition ([12]; 10^−7 M seed soak 12 h): 33.3 b
- seedling emergence under field condition ([12]; LCO 10^−5 M seed soak 12 h): 26.6 ab
- seedling emergence under field condition ([12]; LCO 10^−9 M seed soak 12 h): 63.3 c
